Legend:
Assay type in all cases: cell-based
[1] = test system: organotypischen Zellkulturen; assay: ATP production (ATPLite-M luminescence assay) in organotypic cell cultures; conditions: 24 h
Description: ATP (Adenosintriphosphat) ist die universelle Speicherform für chemische Energie in Zellen. Bei der Abspaltung der distalen Phosphatgruppe entsteht ADP und Pi (anorganisches Phosphat). Diese Reaktion ist stark exergon, d.h. es wird Energie frei. Produziert wird ATP beim zellulären, oxidativen Abbau von Fetten, Kohlehydraten und Proteinen. Es dient als Energielieferant für biochemische Synthesen, für Transportvorgänge (aktiver Transport) und für mechanische Arbeit. Diese Vorgänge sind endergon, d.h. sie laufen nur unter Energiezufuhr ab. Um ihren Stoffwechsel optimal aufrecht zu erhalten, sind Zellen also auf eine ausreichende Versorgung mit ATP angewiesen. Auch dermale Papillenzellen benötigen beispielsweise zur Produktion von Wachstumsfaktoren und damit zur Steuerung des Haarzyklus ATP. Die Proliferation und Differenzierung von Haarschaftkeratinozyten ist ebenfalls an die ATP-Synthese gekoppelt, da für beide Vorgänge die Biosynthese spezifischer Proteine essentielle Voraussetzung ist. Kann durch ein Produkt die ATP-Syntheserate der haarrelevanten Zellen erhöht werden, so steht den Zellen mehr Energie zur Verfügung um Stoffwechselvorgänge und zelluläre Strukturen aufrecht zu erhalten, und um Strukturen zu erneuern, z.B. bei Reparaturprozessen oder dem Neuaufbau von Haaren.
Die ATP-Bestimmungen erfolgten mit Hilfe des ATPLiteTM-M Assays (Packard). […]

[2] = test system: IGFBP3; assay: Differential gene expression by quantitative RT-PCR in dermal papilla cells: IGFBP3; conditions: for Expression IGFBP3, Mittelwert: 24 h, untreated control = 1, spread in brackets
Description: (§1) Hepatocyte Growth Factor (HGF) und Keratinocyte Growth Factor (KGF) sind wichtige Wachstumsfaktoren, die von den dermalen Papillenzellen synthetisiert werden. Im Speziellen stimuliert HGF das Follikelwachstum und KGF die Keratinozytenproliferation. Entsprechend werden HGF und KGF in der Wachstumsphase vermehrt exprimiert. Diesen Eigenschaften gegenüber steht die Expression von IGFBP-3. Dieses Genprodukt führen zu einer Verschiebung des Zyklus von der Wachstums- zur Regressionsphase. Nach Applikation von Substanzen, die Effekte am biologisch aktiven Teil des Haares hervorrufen, könnte die Bestimmung der Veränderungen der Expression dieser Gene Aussagen über Haarwuchsstimulantien oder -inhibitoren liefern. Die differentielle Genexpression wurde mittels quantitatitiver RT-PCR (Reverse-Transkription Polymerase Kettenreaktion) bestimmt. Nach Anzucht der dermalen Papillenzellen wurden diese für 24 h mit Dihydroquercetin in der Konzentration von 8,8 und 88 µM (entspricht Extrakt der Sibirischen Lerche von 0,003% und 0,0003%) inkubiert. Zur Durchführung der PCR wird zunächst mit Hilfe des RNeasy Mini Kits der Fa. Qiagen die RNA aus den dermalen Papillenzellen isoliert und mittels reverser Transkription in cDNA umgeschrieben. Bei der anschließenden PCR Reaktion, die mit Hilfe genspezifischer Primer für die jeweiligen haarrelevanten Gene durchgeführt wird und die der Amplifikation der gesuchten Genabschnitte dient, wird die Bildung der PCR-Produkte online über ein Fluoreszenzsignal detektiert. Das Fluoreszenzsignal ist dabei proportional zur Menge des gebildeten PCR-Produktes. Je stärker die Expression eines bestimmten Gens ist, desto größer ist die Menge an gebildetem PCR-Produkt und um so höher ist das Fluoreszenzsignal. Zur Quantifizierung der Genexpression wird die unbehandelte Kontrolle gleich 1 gesetzt und die Expression der zu bestimmenden Gene darauf bezogen (x-fache Expression). Dabei werden Werte, die größer/gleich der 2fachen Expression oder kleiner/gleich der 0.5fachen Expression der unbehandelten Kontrolle sind als signifikant differentiell exprimiert eingestuft. […]

[3] = test system: HGF; assay: Differential gene expression by quantitative RT-PCR in dermal papilla cells: HGF; conditions: for Expression HGF, Mittelwert: 24 h, untreated control = 1, spread in brackets
Description: as §1

[4] = test system: KGF; assay: Differential gene expression by quantitative RT-PCR in dermal papilla cells: KGF; conditions: for Expression KGF, Mittelwert: 24 h, untreated control = 1, spread in brackets
Description: as §1

[5] = test system: KGF; assay: KGF release into medium (ELISA) from dermal papilla cells; conditions: for Relative Ausschüttung von KGF, Mittelwert [%]: 24 h, untreated sample = 100, spread in brackets
Protocol: Der Keratinozyten Wachstumsfaktor Factor (KGF) ist ein äußerst wichtiger Regulator des Haars. Bei einer potentiell wachstumsfördernden und das Haar stärkenden Aktivsubstanz kann von einer Steigerung der ins Medium ausgeschütteten Faktoren ausgegangen werden. Die Ausschüttung von KGF kann mit Hilfe von kommerziell erhältlichen ELISA-Kits quantifiziert werden. Dazu wurden die dermalen Papillenzellen über 24 Stunden mit Dihydroquercetin in der Konzentration von 8,8 und 88 µM (entspricht Extrakt der Sibirischen Lerche von 0,003% und 0,0003%) inkubiert und die Konzentration des Wachstumsfaktors im Medium in beschriebener Weise quantifiziert. Tabelle 3: Relative Ausschüttung von KGF in [%] nach Behandlung der dermalen Papillenzellen im Vergleich zur unbehandelten Probe.

[6] = test system: KGF; assay: KGF release into medium (ELISA) from organotypic hair follicle cell cultures; conditions: 88 µM
Description: (§2) Hepatocyte Growth Factor (HGF) und Keratinocyte Growth Factor (KGF) sind wichtige Wachstumsfaktoren, die von der dermalen Papille ausgeschüttet werden, um die Proliferation der Haarschaftkeratinozyten, die für die Synthese der Haarkeratine verantwortlich sind, zu steuern. Sie sind außerdem charakteristische Marker für die Anagenphase, in der auch die Keratinsynthese maximal ist. Darüber hinaus ist zu beachten, dass bei der Haaralterung das Proliferationsvermögen der Haarfollikelzellen abnimmt. Die Ausschüttung von HGF sowie KGF kann mit Hilfe von kommerziell erhältlichen ELISA-Kits quantifiziert werden. Dazu werden organotypische Haarfollikelzellkulturen über 72h mit Dihydroquercetin in der Konzentration 88 µM (entspricht Extrakt der Sibirischen Lerche von 0,003%) inkubiert und die Konzentration der Wachstumsfaktoren im Medium in beschriebener Weise bestimmt. Tabelle 4: Relative Ausschüttung von HGF und KGF in [%] nach Behandlung von organotypischen Haarfollikelzellkulturen im Vergleich zu unbehandelten Kontrollen.

[7] = test system: HGF; assay: HGF release into medium (ELISA) from organotypic hair follicle cell cultures; conditions: 88 µM
Description: as §2

[8] = test system: "Outer Root Sheath" Keratinozyten; assay: Layer thickness of ORS keratinocytes in organotypic cell culture model (histology); conditions: 88 µM, 72 h
Description: Physiologische Effekte der Behandlung mit potentiellen Wirkstoffen hinsichtlich einer Verdickung des Haares kann anhand einer Steigerung der Schichtdicke der "Outer Root Sheath" Keratinozyten im organotypischen Zellkulturmodell bestimmt werden. Dazu werden jeweils drei Modelle nach 72 stündiger Inkubation mit Wirkstoff oder mit Referrenzmedium histologisch analysiert: Fixation in 4 % Paraformaldehyd, Färbung mittels Propidiumiodid und mikroskopische Analyse. Im Folgenden wird die Dicke der ORS Keratinozytenschicht des organptypischen Modells randomisiert vermessen und die Ergebnisse werden in Relation zur unbehandelten Kontrolle dargestellt. Tabelle 5: Steigerung der Schichtdicke nach Behandlung der organptypischen Zellkultur mit Dihydroquercetin in der Konzentration von 88 µM (entspricht Extrakt der Sibirischen Lerche von 0,003%) in % im Vergleich zur unbehandelte Probe

[9] = test system: hHa3-I; assay: Hair keratin expression by quantitative real-time PCR in organotypic cell cultures: hHa3-I; conditions: 88 µM, 24 h after application
Description: (§3) Hepatocyte Growth Factor (HGF) und Keratinocyte Growth Factor (KGF) sind wichtige Wachstumsfaktoren, die von den dermalen Papillenzellen synthetisiert werden. Im Speziellen stimuliert HGF das Follikelwachstum und KGF die Keratinozytenproliferation. Entsprechend werden HGF und KGF in der Wachstumsphase vermehrt exprimiert. Diesen Eigenschaften gegenüber steht die Expression von IGFBP-3. Dieses Genprodukt führen zu einer Verschiebung des Zyklus von der Wachstums- zur Regressionsphase. […] Die differentielle Genexpression wurde mittels quantitatitiver RT-PCR (Reverse-Transkription Polymerase Kettenreaktion) bestimmt. […] Zur Quantifizierung der Genexpression wird die unbehandelte Kontrolle gleich 1 gesetzt und die Expression der zu bestimmenden Gene darauf bezogen (x-fache Expression). […]
(§4) Die Festigkeit der Haare und die Haarstruktur ist im Wesentlichen von der Zusammensetzung spezieller haarspezifischer Strukturproteine abhängig, den Haarkeratinen. […] Die Expression verschiedener Haarkeratine organotypischen Modellen kann mit Hilfe des in Beispiel 8 beschriebenen quantitativen Real-Time-PCR-Verfahrens untersucht werden. Zur Quantifizierung der Genexpression wird die Lösungsmittelkontrolle gleich 1 gesetzt und die Expression der zu bestimmenden Gene darauf bezogen (x-fache Expression). […]

[10] = test system: hHa4; assay: Hair keratin expression by quantitative real-time PCR in organotypic cell cultures: hHa4; conditions: 88 µM, 24 h after application
Description: as §3, §4

[11] = dermal papilla cells, 24 h treatment
[12] = organotypic hair follicle cell cultures, 72 h, untreated control = 100, spread in brackets
[13] = control = 1, spread in brackets

O=C1c2c(O)cc(O)cc2OC(c2ccc(O)c(O)c2)C1O (stereo not drawn) [Dihydroquercetin, 2-(3.4-dihyrdroxy-phenyl)-3 5 7-trihydroxy-chroman-4-one]
ATP-Produktion von organotypischen Zellkulturen in %, Mittelwert (Standardabweichung) ([1]; 88 µM (= 0,003% Extrakt der Sibirischen Lerche), untreated sample = 100): 138 (10) %
Steigerung der ATP-Produktion gegenüber der unbehandelten Kontrolle ([1]; organotypic cell cultures, 88 µM): 38%
Expression IGFBP3, Mittelwert ([2]; dermal papilla cells, 88 µM): 0,63(0,13) x-fache Expression
Expression IGFBP3, Mittelwert ([2]; dermal papilla cells, 8,8 µM): 0,72 (0,04) x-fache Expression
Genexpression von IGFBP-3 (result in words) [2, 11]: tendenziellen verminderten Expression
Expression HGF, Mittelwert ([3]; dermal papilla cells, 88 µM): 3,62(2,11) x-fache Expression
Expression HGF, Mittelwert ([3]; dermal papilla cells, 8,8 µM): 2,90 (1,18) x-fache Expression
Genexpression von HGF (result in words) [3, 11]: tendenziell
Expression KGF, Mittelwert ([4]; dermal papilla cells, 88 µM): 2,18 (0,27) x-fache Expression
Expression KGF, Mittelwert ([4]; dermal papilla cells, 8,8 µM): 2,71 (0,36) x-fache Expression
Genexpression von KGF (result in words) [4, 11]: signifikanten Induktion
Relative Ausschüttung von KGF, Mittelwert [%] ([5]; dermal papilla cells, 88 µM): 176 (16,7) %
Relative Ausschüttung von KGF, Mittelwert [%] ([5]; dermal papilla cells, 8,8 µM): 173 (17,6) %
Freisetzung von KGF (result in words) ([5]; dermal papilla cells, 8,8 and 88 µM): signifikant erhöhten Freisetzung
Relative Ausschüttung von KGF, Mittelwert [%] [6, 12]: 126 (7) %
Freisetzung von KGF (result in words) ([6]; organotypic hair model): Aktivierung der Freisetzung
Relative Ausschüttung von HGF, Mittelwert [%] [7, 12]: 142 (15) %
Freisetzung des Hepatozyten Wachstumsfaktor (HGF) (result in words) ([7]; organotypic hair model): erhöhte Freisetzung
Steigerung der ORS Keratinozytenschichtdicke ([8]; called tendential): 11%
Schichtdicke in % im Vergleich zur unbehandelte Probe, Mittelwert ([8]; control = 100, spread in brackets): 111 (4) %
Keratinexpression hHa3-I (result in words) [9]: Steigerung der Keratinexpression
Haarkeratinexpression hHa3-I [9, 13]: 4,1 (1,5) x-fache Expression
Keratinexpression hHa4 (result in words) [10]: Steigerung der Keratinexpression
Haarkeratinexpression hHa4 [10, 13]: 4,1 (1,6) x-fache Expression

— EP1927378A1, “Hair-treatment compositions comprising quercetin and use thereof to revitalize hair” (Henkel Kommanditgesellschaft auf Aktien, priority 2006, dated 2008)
